In paper PMC9501280, “Anti-Inflammatory Activity of Soluble Epoxide Hydrolase Inhibitors Based on Selenoureas Bearing an Adamantane Moiety” (International Journal of Molecular Sciences, 2022):

Tests used:
B. subtilis 168 pNK-AlkA = test: Lux-biosensor, DNA alkylation (PalkA); type: cell-based, Bacillus subtilis; details: compounds 1 μM to 1 mM; Standard = methyl methanesulfonate 1 mM
Protocol: (§1) The study was carried out with use of the following whole-cell bacterial biosensors: Escherichia coli MG1655 pOxyR-lux, E. coli MG1655 pDps, E. coli MG1655 pSoxS-lux, E. coli MG1655 pColD-lux, E. coli MG1655 pAlkA-lux, E. coli MG1655 pXen7, Bacillus subtilis 168 pNK-AlkA, B. subtilis 168 pNK-MrgA and B. subtilis 168 pNK-DinC. These biosensors by the quantitation of bacterial stress promoters’ activity, make it possible to determine oxidative stress caused by hydrogen peroxide and the superoxide anion radical, SOS response, DNA alkylation, or general toxicity in Gram-positive and Gram-negative B. subtilis and E. coli cells. We used concentrations from 1 μM to 1 mM of the studied compounds added to the suspension of biosensor cells. […]
(§2) The bioluminescence of cells was measured using a Synergy HT luminometer (Biotek, Winooski, VT, USA) at room temperature. Lux biosensors based on E. coli were grown to an early logarithmic phase (OD ≈ 0.1) to achieve a background luminescence approximately 100–1000 RLU at the beginning of the measurements. Lux biosensors based on B. subtilis were grown to a logarithmic phase with an optical density OD ≈ 0.6 (and background luminescence of about 10–500 RLU). […] The kinetics of change in luminescence was measured at room temperature. […]

[1] = tested on: LPS-stimulated C57bl/6j peritoneal macrophages; test: Suppression of NO synthesis in LPS-stimulated peritoneal macrophages (Griess); type: cell-based, mice
Excerpt: For screening designed compounds according to their probable ability to limit inflammation, we used a test on the inhibition of LPS-induced activation of primary murine macrophages. The most prominent anti-inflammatory activity, defined as the suppression of nitric oxide synthesis by LPS-stimulated macrophages, was evident for compounds 4a and 5b. At the same time, for 4a, the cytotoxic concentration was 4.7–18.4 times higher than the effective anti-inflammatory concentration. […] According to the data obtained, there is no direct correlation between the efficiency of the inhibition of sEH and NO synthesis, which requires further studies of the anti-inflammatory activity of the investigated compounds.
Peritoneal macrophages (PM) were isolated from the peritoneal exudate of 30 male C57bl/6j mice. To accumulate PM, 1 mL of 3% peptone solution was injected intraperitoneally. After 3 days, the mice were euthanized by cervical dislocation. Cells of peritoneal exudate were obtained by aseptic washing of the abdominal cavity with 5 mL of sterile Hanks’s solution (+4–6 °C) without calcium and magnesium ions. The total number and viability of cells were assessed in a Goryaev counting chamber (Russia) with a 0.4% trypan blue staining (Sigma-Aldrich, St. Louis, MO, USA). The cell concentration was adjusted to 1.0 × 10^6 cells/mL in DMEM (Gibco) supplemented with 2 mM L-glutamine (Gibco), 10% heat-inactivated fetal bovine serum (BioClot, Passau, Germany), 100 U/mL penicillin and […] streptomycin (Gibco) and plated 200 μL/well in 96-well transparent plates (SPL Life Sciences Co., Ltd., Pochon, Korea). After 2 h at 37 °C in a humidified atmosphere with 5% CO2, wells were washed to remove nonadherent cells. After 24 h of incubation, 20 μL of the supernatants were substituted with 20 μL of solutions of the test compounds, followed with E. coli O127:B8 LPS (100 ng/mL final concentration) after 30 min. Experiments were run in 3 independent replicates.
The accumulation of nitrite anion (a stable decomposition product of NO produced by iNOS) in the supernatants was determined using a standard Griess reagent. Briefly, 50 μL of supernatants collected 22 h after incubation of PM with the test and control compounds were mixed with 50 μL of 1% sulfonamide in 2.5% H3PO4 and 50 μL of 0.1% N-(1-naphthyl) ethylenediamine in 2.5% H3PO4. After incubation at 23 °C for 10 min. in an orbital shaker, the optical density was determined at a wavelength of 550 nm with a microplate reader Infinite M200 PRO (Tecan, Austria).

[2] = tested on: E. coli MG1655 and B. subtilis 168 biosensor cells; test: Whole-cell bacterial lux-biosensors, whole panel (statements in words); type: cell-based, Escherichia coli, Bacillus subtilis; details: concentrations from 1 μM to 1 mM
Protocol: The study was carried out with use of the following whole-cell bacterial biosensors: Escherichia coli MG1655 pOxyR-lux, E. coli MG1655 pDps, E. coli MG1655 pSoxS-lux, E. coli MG1655 pColD-lux, E. coli MG1655 pAlkA-lux, E. coli MG1655 pXen7, Bacillus subtilis 168 pNK-AlkA, B. subtilis 168 pNK-MrgA and B. subtilis 168 pNK-DinC. These biosensors by the quantitation of bacterial stress promoters’ activity, make it possible to determine oxidative stress caused by hydrogen peroxide and the superoxide anion radical, SOS response, DNA alkylation, or general toxicity in Gram-positive and Gram-negative B. subtilis and E. coli cells. We used concentrations from 1 μM to 1 mM of the studied compounds added to the suspension of biosensor cells.
In this work, biosensor strains based on E. coli MG1655 cells and B. subtilis 168 cells were used.
The bioluminescence of cells was measured using a Synergy HT luminometer (Biotek, Winooski, VT, USA) at room temperature. Lux biosensors based on E. coli were grown to an early logarithmic phase (OD ≈ 0.1) to achieve a background luminescence approximately 100–1000 RLU at the beginning of the measurements. Lux biosensors based on B. subtilis were grown to a logarithmic phase with an optical density OD ≈ 0.6 (and background luminescence of about 10–500 RLU). […] The kinetics of change in luminescence was measured at room temperature.

B. subtilis 168 pNK-DinC = test: Lux-biosensor, SOS response (PdinC); type: cell-based, Bacillus subtilis; details: compounds 1 μM to 1 mM; Standard = Mitomycin C 30 μM
Protocol: as §1, §2

B. subtilis 168 pNK-MrgA = test: Lux-biosensor, hydrogen peroxide (PmrgA); type: cell-based, Bacillus subtilis; details: compounds 1 μM to 1 mM; Standard = hydrogen peroxide 100 μM
Protocol: as §1, §2

SMILES | max(Kind), B. subtilis 168 pNK-AlkA (B. subtilis 168 pNK-AlkA) | cytotoxic concentration versus effective anti-inflammatory concentration ([1]; CC50 (MTT, LDH) over NO synthesis IC50, peritoneal macrophages) | IC50 ([1]; Mus musculus, Peritoneal macrophage, 22 h, read-out: NO Synthesis, IC50 ± SE) [µM] | activation of stress promoters (in words) [2] | max(Kind), B. subtilis 168 pNK-DinC (B. subtilis 168 pNK-DinC) | max(Kind), B. subtilis 168 pNK-MrgA (B. subtilis 168 pNK-MrgA) | NO synthesis inhibition (in words) ([1]; LPS-stimulated macrophages)
[Se]=C(Nc1ccccc1)NC12CC3CC(CC(C3)C1)C2 [4a, 1-(Adamantan-1-yl)-3-phenylselenourea] | 0.8 ± 0.4 | 4.7–18.4 times | 1.6 ± 0.2 | causes only the activation of stress promoter PoxyR | 1.1 ± 0.4 | 1.2 ± 0.5 | 
[Se]=C(Nc1ccccc1)NC1C2CC3CC(C2)CC1C3 (centres unmarked) [4g, 1-(Adamantan-2-yl)-3-phenylselenourea] | 0.7 ± 0.4 |  |  | does not cause an increase in the luminescence | 1.1 ± 0.3 | 1.2 ± 0.3 | able to inhibit sEH but not NO synthesis
